Where a name gives a salt, the structure may show the parent alone.
Experiments:
Assay type in all cases: biochemical
IP6K3 = IP6K3 (Homo sapiens (Human), UniProt Q96PC2); test: Enzyme-coupled assay of IP6K3 activity (Dipp1-coupled, malachite green Pi release)
IPMK = IPMK (Homo sapiens (Human), UniProt Q8NFU5); test: Enzyme-coupled assay, IPMK IC50
IP6K2 = IP6K2 (Homo sapiens (Human), UniProt Q9UHH9); test: Enzyme-coupled assay of IP6K2 activity (Dipp1-coupled, malachite green Pi release)
Description: (§1) […] The cells were disrupted using a constant cell disruption system (Constant Systems) under 20 kPsi.
(§2) Pi release was determined with a malachite green colorimetric assay.^45 Where indicated, TNP (Cayman Chemical) was added to the assays (FIG. 2A-E).

IP6K1 = IP6K1 (Homo sapiens (Human), UniProt Q92551); test: Enzyme-coupled assay of IP6K1 activity (Dipp1-coupled, malachite green Pi release)
Description: as §1, §2

[1] = determined from enzyme-coupled assays

Chain of IP6K3 (Q96PC2 whole entry): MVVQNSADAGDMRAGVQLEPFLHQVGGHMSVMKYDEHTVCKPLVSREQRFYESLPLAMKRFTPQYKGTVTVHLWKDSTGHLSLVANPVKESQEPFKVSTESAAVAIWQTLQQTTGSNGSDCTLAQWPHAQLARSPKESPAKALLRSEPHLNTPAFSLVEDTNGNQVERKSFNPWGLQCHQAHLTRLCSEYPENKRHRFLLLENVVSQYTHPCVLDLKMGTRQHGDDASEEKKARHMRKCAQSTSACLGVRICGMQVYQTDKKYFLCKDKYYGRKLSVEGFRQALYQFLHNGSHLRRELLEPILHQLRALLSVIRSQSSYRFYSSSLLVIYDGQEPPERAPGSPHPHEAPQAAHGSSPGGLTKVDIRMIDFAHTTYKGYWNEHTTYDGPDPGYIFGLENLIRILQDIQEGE
Chain of IP6K2 (Q9UHH9 whole entry): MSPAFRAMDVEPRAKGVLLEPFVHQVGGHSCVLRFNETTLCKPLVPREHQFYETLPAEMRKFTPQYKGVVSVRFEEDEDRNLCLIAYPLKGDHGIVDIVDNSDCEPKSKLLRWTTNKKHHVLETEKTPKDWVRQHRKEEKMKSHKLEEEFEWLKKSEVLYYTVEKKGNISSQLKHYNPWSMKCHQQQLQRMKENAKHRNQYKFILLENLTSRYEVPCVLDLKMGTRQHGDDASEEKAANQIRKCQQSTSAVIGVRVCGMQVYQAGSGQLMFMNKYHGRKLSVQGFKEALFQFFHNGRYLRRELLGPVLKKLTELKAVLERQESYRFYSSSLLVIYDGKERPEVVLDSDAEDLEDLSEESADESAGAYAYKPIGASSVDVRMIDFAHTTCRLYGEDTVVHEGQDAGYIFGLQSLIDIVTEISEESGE
Chain of IP6K1 (Q92551 whole entry): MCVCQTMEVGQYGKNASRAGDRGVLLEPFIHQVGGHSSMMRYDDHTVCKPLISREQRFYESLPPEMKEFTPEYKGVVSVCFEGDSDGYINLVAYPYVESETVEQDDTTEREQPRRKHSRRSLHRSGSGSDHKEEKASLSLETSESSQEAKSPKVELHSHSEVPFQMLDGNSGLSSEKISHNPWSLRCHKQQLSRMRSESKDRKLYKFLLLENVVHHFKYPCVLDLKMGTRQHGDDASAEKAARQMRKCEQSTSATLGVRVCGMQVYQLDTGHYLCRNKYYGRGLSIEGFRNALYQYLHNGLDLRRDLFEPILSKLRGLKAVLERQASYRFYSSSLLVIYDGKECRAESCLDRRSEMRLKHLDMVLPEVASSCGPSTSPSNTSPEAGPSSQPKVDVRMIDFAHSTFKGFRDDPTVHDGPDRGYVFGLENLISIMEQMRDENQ
Chain of IPMK (Q8NFU5 whole entry, species assumed): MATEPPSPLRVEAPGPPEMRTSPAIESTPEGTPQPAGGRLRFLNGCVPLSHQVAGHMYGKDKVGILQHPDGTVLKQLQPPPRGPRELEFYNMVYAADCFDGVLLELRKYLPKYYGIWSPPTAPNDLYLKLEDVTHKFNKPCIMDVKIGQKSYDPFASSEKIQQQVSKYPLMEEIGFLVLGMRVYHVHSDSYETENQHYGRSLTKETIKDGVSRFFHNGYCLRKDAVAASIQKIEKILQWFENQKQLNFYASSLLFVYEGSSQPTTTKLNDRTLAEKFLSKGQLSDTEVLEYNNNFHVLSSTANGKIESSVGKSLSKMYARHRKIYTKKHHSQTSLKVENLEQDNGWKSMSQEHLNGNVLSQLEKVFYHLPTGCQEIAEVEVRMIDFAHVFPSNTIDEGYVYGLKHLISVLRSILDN

| SMILES | IC50 (IP6K3; enzyme-coupled assay, Table 2) | IC50 (IPMK; enzyme-coupled assay, Table 2) | IC50 (IP6K2; enzyme-coupled assay, Table 4) | IC50 (IP6K3; enzyme-coupled assay, Table 4) | IC50 (IPMK; enzyme-coupled assay, Table 4) | other results |
| --- | --- | --- | --- | --- | --- | --- |
| O=C(O)c1ccc2noc(-c3ccc(NC(=O)c4ccccc4)cc3)c2c1 [Compound 46] | 100 to 1000 nM | 1000 to 100000 nM |  |  |  |  |
| CC(C)NC(=O)c1ccc(-c2onc3ccc(C(=O)O)cc23)cc1 [Compound 38] | 100 to 1000 nM | 1000 to 100000 nM |  |  |  | IC50 (IP6K2; enzyme-coupled assay, Table 2): 100 to 1000 nM |
| O=C(Nc1cccc(-c2onc3ccc(-c4nnn[nH]4)cc23)c1)C1CCCC1 [Compound 73] |  |  | 10 to 100 nM | 10 to 100 nM | < 10 nM | IC50 (IP6K1; enzyme-coupled assay, Table 4): 10 to 100 nM |
| Cc1cc(C)cc(-c2onc3ccc(-c4nnn[nH]4)cc23)c1 [Compound 65] |  |  | 10 to 100 nM | 100 to 1000 nM | 10 to 100 nM | IC50 (IP6K1; enzyme-coupled assay, Table 4): 10 to 100 nM |
| c1ccc(-c2ccc(-c3onc4ccc(-c5nnn[nH]5)cc34)cc2)cc1 [Compound 68] |  |  | 10 to 100 nM | 100 to 1000 nM |  | IC50 (IP6K1; enzyme-coupled assay, Table 4): 10 to 100 nM |
| Cc1cc(C)cc(-c2onc3ccc(C(=O)O)cc23)c1 [Compound 19] | 1000 to 100000 nM | 100 to 1000 nM |  |  |  |  |
| FC(F)(F)Oc1ccc(-c2onc3ccc(-c4nnn[nH]4)cc23)cc1 [Compound 66] |  |  | 10 to 100 nM | 100 to 1000 nM | 10 to 100 nM | IC50 (IP6K1; enzyme-coupled assay, Table 4): 10 to 100 nM |
| c1cncc(-c2ccc(-c3onc4ccc(-c5nnn[nH]5)cc34)cc2)c1 [Compound 69] |  |  | 10 to 100 nM | 100 to 1000 nM | < 10 nM | IC50 (IP6K1; enzyme-coupled assay, Table 4): 10 to 100 nM |
| Cc1cc(C)cc(-c2onc3ccc(/C=C/C(=O)O)cc23)c1 [Compound 11] |  |  |  |  |  | IC50 (IP6K1; enzyme-coupled assay, Table 1): 100 to 1000 nM; IC50 (IP6K2; enzyme-coupled assay, Table 1): 100 to 1000 nM; IC50 (IP6K3; enzyme-coupled assay, Table 1): 100 to 1000 nM |
| O=C(O)c1ccc2noc(-c3cccc(-c4ccccc4)c3)c2c1 [Compound 34] | 100 to 1000 nM | 10 to 100 nM |  |  |  | IC50 (IP6K2; enzyme-coupled assay, Table 2): 100 to 1000 nM |
| O=C(O)c1ccc2noc(-c3ccc(N4CCCCC4)cc3)c2c1 [Compound 55] |  |  |  |  |  | IC50 (IP6K3; enzyme-coupled assay, Table 3): 1000 to 100000 nM; IPMK IC50 (IPMK; enzyme-coupled assay, Table 3): − |
| O=C(O)/C=C/c1ccc2noc(-c3ccc(Oc4ccccc4)cc3)c2c1 [Compound 15] |  |  |  |  |  | IC50 (IP6K3; enzyme-coupled assay, Table 1): 100 to 1000 nM |
| O=C(O)c1ccc2noc(-c3ccc(Cc4ccccc4)cc3)c2c1 [Compound 54, 3-(4-benzylphenyl)benzo[c]isoxazole-5-carboxylic acid] |  |  |  |  |  | IC50 (IP6K3; enzyme-coupled assay, Table 3): 1000 to 100000 nM; IC50 (IPMK; enzyme-coupled assay, Table 3): 10 to 100 nM |
| O=C(O)/C=C/c1ccc2noc(-c3ccc(-c4ccccc4)cc3)c2c1 [Compound 16] |  |  |  |  |  | IC50 (IP6K3; enzyme-coupled assay, Table 1): 100 to 1000 nM |
| O=C(O)c1ccc2noc(-c3ccc(Oc4ccccc4)cc3)c2c1 [Compound 24] | 100 to 1000 nM | 100 to 1000 nM |  |  |  |  |
| O=C(Nc1ccc(-c2onc3ccc(-c4nnn[nH]4)cc23)cc1)C1CC1 [Compound 71] |  |  | 100 to 1000 nM | < 10 nM | < 10 nM | IC50 (IP6K1; enzyme-coupled assay, Table 4): 10 to 100 nM |
| CN(C)CCOc1ccc(-c2onc3ccc(-c4nnn[nH]4)cc23)cc1 [Compound 79] |  |  | 100 to 1000 nM | 100 to 1000 nM | 1000 to 100000 nM | IC50 (IP6K1; enzyme-coupled assay, Table 4): 100 to 1000 nM |
| CN(C)C(=O)/C=C/c1ccc2noc(-c3ccccc3)c2c1 [Compound 9] |  |  |  |  |  | IP6K3 IC50 (IP6K3; enzyme-coupled assay, Table 1): − |
| O=c1[nH]c(-c2ccc3noc(-c4ccc(-c5ccccc5)cc4)c3c2)no1 [Cmpd 125] |  |  |  |  |  | IC50 (IP6K1; [1]): 10 to 100 nM; IC50 (IP6K2; [1]): 10 to 100 nM; IC50 (IP6K3; [1]): < 10 nM; IC50 (IPMK; [1]): < 10 nM |
| CNC(=O)c1ccc2noc(-c3ccc(-c4ccccc4)cc3)c2c1 [Compound 26] | 100 to 1000 nM | 10 to 100 nM |  |  |  | IC50 (IP6K1; enzyme-coupled assay, Table 2): 10 to 100 nM; IC50 (IP6K2; enzyme-coupled assay, Table 2): 100 to 1000 nM |
| O=C(O)c1ccc2onc(-c3ccccc3)c2c1 [Cmpd 91] |  |  |  |  |  | IC50 (IP6K1; enzyme-coupled assay, Table 6): 1000 to 100000 nM; IC50 (IP6K2; enzyme-coupled assay, Table 6): 1000 to 100000 nM; IC50 (IP6K3; enzyme-coupled assay, Table 6): 100 to 1000 nM |
| c1ccc(-c2onc3ccc(-n4cncn4)cc23)cc1 [Compound 61] |  |  | 1000 to 100000 nM | 1000 to 100000 nM | 10 to 100 nM | IC50 (IP6K1; enzyme-coupled assay, Table 4): 1000 to 100000 nM |
| O=C(CC1CCOCC1)Nc1ccc(-c2onc3ccc(C(=O)O)cc23)cc1 [Compound 37] | 1000 to 100000 nM | 1000 to 100000 nM |  |  |  | IC50 (IP6K1; enzyme-coupled assay, Table 2): 1000 to 100000 nM; IC50 (IP6K2; enzyme-coupled assay, Table 2): 1000 to 100000 nM |
| O=C(O)c1ccc2noc(-c3cccc(NC(=O)C4CC4)c3)c2c1 [Compound 42] | 1000 to 100000 nM | 10 to 100 nM |  |  |  |  |
| O=C(O)c1ccc2noc(-c3cccc(Oc4ncc(Cl)cc4Cl)c3)c2c1 [Compound 30] | 1000 to 100000 nM | 10 to 100 nM |  |  |  |  |
| O=C(Nc1ccc(-c2onc3ccc(-c4noc(=O)[nH]4)cc23)cc1)[C@@H]1CCCN1 [Cmpd 136] |  |  |  |  |  | IC50 (IP6K1; [1]): 100 to 1000 nM; IC50 (IP6K2; [1]): 100 to 1000 nM; IC50 (IPMK; [1]): 10 to 100 nM |
| O=C(Nc1ccc(-c2onc3ccc(-c4noc(=O)[nH]4)cc23)cc1)C1CNC1 [Cmpd 137] |  |  |  |  |  | IC50 (IP6K1; [1]): 100 to 1000 nM; IC50 (IP6K2; [1]): 1000 to 100000 nM; IC50 (IPMK; [1]): 100 to 1000 nM |

From patent publication US20250154115A1, “ARYLBENZOISOXAZOLE COMPOUNDS AS IP6K AND IPMK INHIBITORS AND METHODS OF USE THEREOF” (THE UNIVERSITY OF NORTH CAROLINA AT CHAPEL HILL, priority 2022, published 2025)
